Laboratory results as given in patent US20140093598A1, “COMPOUNDS AND EXTRACTS FROM GNETUM AFRICANUM AND ANTI-INFLAMMATORY ACTIVITY RELATED THERETO” (PHARMAFRI-CAN INC., priority 2010, published 2014).
Read-outs that look alike come from different tables or passages of the source.

How the values were obtained:
[1] = test system: LPS induced TNF-α production in RAW 264.7 cells; settings: reported by Iyori et al. 2008; cited from earlier work
[2] = test system: LPS induced TNF-α production in RAW 264.7 cells; assay: LPS-induced TNF-α production in RAW 264.7 cells, ELISA of culture supernatants; assay type: cell-based; settings: for IC50: Mus musculus, RAW264.7
Description: Cell culture supernatants were used for the determination of TNF-α production by ELISA (R&D systems).
RAW 264.7 cells were treated with G. africanum leaf and stem extracts (200 μg/ml) for 1 hour and were then induced with LPS (10 μg/ml) for 18 hr. Cell culture supernatants were used for the determination of TNF-α production by ELISA (R&D systems).
Methanol, ethyl acetate and 95% ethanol stem extracts were further analyzed in a dose dependent manner (25-200 μg/ml).

IC50 ([2]; resveratrol 1 μM-100 μM, 1 hour pre-treatment, LPS 10 μg/ml for 18 hr, read-out: IC50, anti-inflammatory activity of resveratrol (FIG. 3)): 50 µM
IC50 ([2]; same value as 50 μM, restated in μg/ml, read-out: IC50, anti-inflammatory activity of resveratrol (FIG. 3), expressed by mass): 12 µg/mL
Compound: Oc1ccc(/C=C/c2cc(O)cc(O)c2)cc1 [resveratrol, (E)-5-(4-hydroxystyryl)benzene-1,3-diol]
Inhibition of LPS induced TNF-α production [1]: could inhibit LPS induced TNF-α production
Inhibition of LPS-induced TNF-α production ([2]; resveratrol at 50 μM and 100 μM, FIG. 3A): inhibited LPS-induced TNF-α production
